Experimental data from ChEMBL document CHEMBL1201862, “PubChem BioAssay data set” (2004).
The source made the active and inactive calls. Cut-off read from the data, not from the text of the source: actives have a measured IC50 and inactives only a lower limit.

Molecular target: Envelope glycoprotein gp160 (Human immunodeficiency virus 1, UniProt Q6QLK5)
Test: cell-free HIV fusion peptide-binding blockers – biochemical, uHTS, fluorescence dequenching, […] (AID 1986)

Envelope glycoprotein gp160, sequence (Q6QLK5 whole entry, the tested form may be a part): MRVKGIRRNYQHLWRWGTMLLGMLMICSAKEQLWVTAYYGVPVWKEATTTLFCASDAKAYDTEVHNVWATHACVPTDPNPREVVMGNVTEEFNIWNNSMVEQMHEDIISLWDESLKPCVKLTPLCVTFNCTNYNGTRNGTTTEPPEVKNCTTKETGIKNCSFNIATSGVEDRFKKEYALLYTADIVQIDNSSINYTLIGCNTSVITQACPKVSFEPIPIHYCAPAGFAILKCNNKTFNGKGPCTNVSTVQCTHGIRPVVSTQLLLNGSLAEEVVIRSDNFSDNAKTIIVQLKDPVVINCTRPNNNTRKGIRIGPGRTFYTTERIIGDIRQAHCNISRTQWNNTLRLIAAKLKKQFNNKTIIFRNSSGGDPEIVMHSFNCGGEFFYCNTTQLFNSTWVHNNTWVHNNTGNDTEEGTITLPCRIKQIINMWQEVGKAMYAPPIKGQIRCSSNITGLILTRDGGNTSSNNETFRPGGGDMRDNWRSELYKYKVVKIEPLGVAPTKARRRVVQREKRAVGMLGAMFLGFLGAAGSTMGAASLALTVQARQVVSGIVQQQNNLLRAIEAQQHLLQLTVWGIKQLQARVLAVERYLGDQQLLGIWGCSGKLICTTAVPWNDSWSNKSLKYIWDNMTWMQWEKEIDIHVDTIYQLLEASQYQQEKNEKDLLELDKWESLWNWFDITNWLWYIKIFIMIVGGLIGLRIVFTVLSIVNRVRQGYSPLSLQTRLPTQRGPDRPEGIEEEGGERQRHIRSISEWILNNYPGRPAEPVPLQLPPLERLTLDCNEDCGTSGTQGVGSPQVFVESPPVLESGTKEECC

SMILES | IC50
COc1cc(/C=C2\C(=N)N3N=C(S(C)(=O)=O)SC3=NC2=O)ccc1OC(=O)c1cccs1 | 12.1 µM (active)
O=C(O)c1ccccc1-c1ccccc1C(=O)Nc1ccc(-c2nc3cc(Cl)ccc3o2)cc1 | 24.4 µM (active)
